{"source": "patent US12258339B2", "about": "“Macrocyclic complexes of alpha-emitting radionuclides and their use in targeted radiotherapy of cancer” (Cornell University, priority 2018, dated 2025)", "experiment": "Stability of [^225Ac(macropa)]^+ in human serum", "type": "in vitro ADME", "details": "radio-TLC", "experimental": "[…]. [^225Ac(macropa)]^+ and [^225Ac(DOTA)]^− were prepared using 10^−5 M and 10^−3 M stock solutions (10 μL) of macropa and DOTA, respectively, to give final ligand concentrations of 5.9×10^−7 M (macropa) and 5.9×10^−5 M (DOTA). After confirming a radiochemical yield of >90% by TLC using 0.4 M sodium citrate (pH 4) containing 10% MeOH as the mobile phase, 160 μL of human serum (an equal volume based on labeling reaction volume) were added to each radiolabeled solution. A control solution was also prepared in which water was substituted for ligand. The solutions were monitored over the course of 8 days by iTLC. The plates were developed with EDTA (50 mM, pH 5) as the eluent. Under these conditions, [^225Ac(macropa)]^+ and [^225Ac(DOTA)]^− complexes remained at the baseline (RF=0) and any ^225Ac (^225Ac-EDTA) that had been transchelated by serum migrated with the solvent front (RF=1). Percent of complex remaining intact was calculated.\nThe long half-life of ^225Ac necessitates its stable complex retention in vivo to avoid off-target damage to normal tissues arising from the release of free ^225Ac^3+. Furthermore, the stability of ^225Ac complexes against transmetalation and transchelation needs to be high. To determine the kinetic inertness, [^225Ac(macropa)]^+ was challenged with La^3+ because of the established high affinity of macropa for this metal ion. […]", "data": [{"smiles": "O=C([O-])c1cccc(CN2CCOCCOCCN(Cc3cccc(C(=O)[O-])n3)CCOCCOCC2)n1.[225Ac+3]", "note": "[[^225Ac(macropa)]^+]", "values": [{"measurement": "time ^225Ac^3+ remains complexed in human serum", "result": "at least 8 days"}]}]}
